In patent publication US4015974A, “Amido phosphorothiolates” (priority 1972, dated 1977):
Values after ≈ are worked out from the molar mass of the structure shown.

Experiments:
Assay type in all cases: in vivo
[1] = test system: tobacco cut worm (Spodoptera litura); test: Field test, tobacco cut worm on cabbage (Table 8); conditions: 3% dust, 5 kg./10 a., after 7 days, on 20 cabbages
Source text: (§1) A 3% dust of each compound of the present invention was applied, in a proportion of 5 kg./10 a., to the field of cabbage where a large number of tobacco cut worm and diamond-back moth were generated, After 7 days, 20 cabbages were pulled out and the number of insects thereon were checked.

[2] = test system: diamond-back moth (Plutella maculipennis); test: Field test, diamond-back moth on cabbage (Table 8); conditions: 3% dust, 5 kg./10 a., after 7 days, on 20 cabbages
Source text: as §1

[3] = test system: barnyard grass (Echinochloa crus-galli); test: Pre-emergence application, herbicidal effect on barnyard grass (Table 1); set-up: key: 0: not damaged; 5: completely killed; conditions: 20 days after application, score 0-5
In short: (§2)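 Compounds, formulated as water-diluted wettable powder, were applied to the soil surface after sowing and covering the seeds in pots of about 10 cm. Effects were rated on a 0 (no damage) to 5 (complete kill) scale after 20 days of greenhouse growth.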

[4] = test system: large crabgrass (Digitaria sanguinalis); test: Pre-emergence application, herbicidal effect on large crabgrass (Table 1); set-up: key: 0: not damaged; 5: completely killed; conditions: 20 days after application, score 0-5
In short: as §2

radish = test: Pre-emergence application, herbicidal effect on radish (Table 1); set-up: key: 0: not damaged; 5: completely killed; conditions: 20 days after application, score 0-5
In short: as §2

[5] = test system: redroot pigweed (Amaranthus retroflexus); test: Pre-emergence application, herbicidal effect on redroot pigweed (Table 1); set-up: key: 0: not damaged; 5: completely killed; conditions: 20 days after application, score 0-5
In short: as §2

[6] = test system: common purslane (Portulaca oleracea); test: Pre-emergence application, herbicidal effect on common purslane (Table 1); set-up: key: 0: not damaged; 5: completely killed; conditions: 20 days after application, score 0-5
In short: as §2

[7] = test system: common lambsquarter (Chenopodium album); test: Pre-emergence application, herbicidal effect on common lambsquarter (Table 1); set-up: key: 0: not damaged; 5: completely killed; conditions: 20 days after application, score 0-5
In short: as §2

rice = test: Water application, phytotoxicity on rice (Table 2); set-up: key: 0: no effect; 1: very slightly affected; 2: slightly affected; 3: moderately affected; 4: considerably affected; 5: completely killed; conditions: 25 days, score 0-5
In short: (§3)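 Ratings on a 0–5 scale taken 25 days post-treatment for rice injury, barnyard grass, and naturally emerging monochoria, false pimpernel and toothcup. Compounds as wettable powder went onto waterlogged paddy soil holding rice seedlings transplanted at 3 leaves and barnyard grass seed.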

[8] = test system: carmine mite (Tetranychus telavius); test: Lethal effect on carmine mite, leaf dipping (Table 3); conditions: foliar, 48 h
Protocol: A large number of carmine mite adult were made parasitic on leaves of potted kidney beans at a 2-leaves stage which had elapsed 10 days after sowing. The leaves of kidney bean on which carmine mites had been made parasitic were dipped for 1 minute in each aqueous solution of the present compounds of wettable powder type. Water was given to the leaves not to kill them, and after 48 hours the death and alive were observed microscopically to calculate the mortality. Values of LC50 were obtained from the mortality.

[9] = test system: tobacco cut worm (Spondoptera litura); test: Lethal effect on tobacco cut worm (Table 5); conditions: tobacco cutworm, larvae on chinese cabbage leaves, 48 h
Protocol: The present compounds of an emulsifiable concentrate type were applied to leaves of chinese cabbage in the form of an 1000 fold dilute solution. After air-drying, third to fourth instar larvae of tobacco cut worm were released and after 48 hours the death and alive were observed.

nematode = test: Effect on nematode (Table 7); set-up: tested at 500 ppm; conditions: 500 p.p.m., 24 hours
Protocol: 0.5 ml. of a nematode-containing aqueous solution separated from food according to Baermann's method was placed in a test tube with ground stopper containing 0.5 ml. of an aqueous dilute solution of each emulsifiable concentrates of the present compounds. The concentration of the active ingredient in the mixture was adjusted to 500 p.p.m. After 24 hours, the death and alive were observed microscopically to calculate the mortality.

[10] = test system: barnyard grass (Echinochloa crus-galli); test: Water application, herbicidal effect on barnyard grass (Table 2); set-up: key: 0: not damaged; 5: completely killed; conditions: 25 days, score 0-5
In short: as §3

[11] = test system: broad-leaved weeds, e.g., monochoria, false pimpernel and toothcup; test: Water application, herbicidal effect on broad-leaved weeds (Table 2); set-up: key: 0: not damaged; 5: completely killed; conditions: 25 days, score 0-5
In short: as §3

[12] = test system: rice stem borer (Chilo suppressalis); test: Lethal effect on rice stem borer (Table 6); conditions: 50 % emulsifiable concentrate, 1000 fold dilute solution, 4 days after application
Source text: Eggs just before hatch of the rice stem borer were applied in a ratio of 100/pot near the root of rice plants grown up into the tillering stage in an […] Wagner's pot. After eggs were hatched and the larvae entered into stems of rice plants, an 1000 fold dilute solution of each 50 % emulsifiable concentrates of the present compounds was applied by means of a turn table.

| SMILES | Number of insects, tobacco cut worm [1] | Number of insects, diamond-back moth [2] | Herbicidal effect, barnyard grass ([3]; 10 g./a.) | Herbicidal effect, barnyard grass ([3]; 20 g./a.) | Herbicidal effect, barnyard grass ([3]; 40 g./a.) | Herbicidal effect, large crabgrass ([4]; 10 g./a.) | Herbicidal effect, large crabgrass ([4]; 20 g./a.) | Herbicidal effect, large crabgrass ([4]; 40 g./a.) | Herbicidal effect, radish (radish; 10 g./a.) | Herbicidal effect, radish (radish; 20 g./a.) | Herbicidal effect, radish (radish; 40 g./a.) | Herbicidal effect, redroot pigweed ([5]; 10 g./a.) | Herbicidal effect, redroot pigweed ([5]; 20 g./a.) | Herbicidal effect, redroot pigweed ([5]; 40 g./a.) | Herbicidal effect, common purslane ([6]; 10 g./a.) | Herbicidal effect, common purslane ([6]; 20 g./a.) | Herbicidal effect, common purslane ([6]; 40 g./a.) | Herbicidal effect, common lambsquarter ([7]; 10 g./a.) | Herbicidal effect, common lambsquarter ([7]; 20 g./a.) | Herbicidal effect, common lambsquarter ([7]; 40 g./a.) | also measured |
| --- | --- | --- | --- | --- | --- | --- | --- | --- | --- | --- | --- | --- | --- | --- | --- | --- | --- | --- | --- | --- | --- |
| COP(=O)(OC)C(O)C(Cl)(Cl)Cl (stereo not shown) [Bipterex, reference compound] | 19 | 49 |  |  |  |  |  |  |  |  |  |  |  |  |  |  |  |  |  |  |  |
| CCCSP(=O)(OCC)SCC(=O)N1CCCCC1C (stereo not shown) [Compound 2, O-ethyl-S-n-propyl-S(2-methylpiperidinocarbomoylmethyl)phosphorodithiolate] | 0 | 8 | 5 | 5 | 5 | 5 | 5 | 5 | 0 | 0 | 1 | 5 | 5 | 5 | 5 | 5 | 5 | 5 | 5 | 5 | Phytotoxicity on rice (rice; 10 g/a): 0; Phytotoxicity on rice (rice; 20 g/a): 1; Phytotoxicity on rice (rice; 40 g/a): 1; LC50 [8]: 4.6 µg/mL (≈ 13.6 µM); Mortality [9]: 100%; Mortality (nematode): 100%; Herbicidal effects, barnyard grass ([10]; 10 g/a): 5; Herbicidal effects, barnyard grass ([10]; 20 g/a): 5; Herbicidal effects, barnyard grass ([10]; 40 g/a): 5; Herbicidal effects, broad-leaved weeds ([11]; 10 g/a): 5; Herbicidal effects, broad-leaved weeds ([11]; 20 g/a): 5; Herbicidal effects, broad-leaved weeds ([11]; 40 g/a): 5 |
| CCOP(=O)(SCC(=O)N1CCCCC1C)SC(C)C (stereo not shown) [Compound 3] | 1 | 12 | 5 | 5 | 5 | 5 | 5 | 5 | 0 | 0 | 0 | 4 | 5 | 5 | 5 | 5 | 5 | 5 | 5 | 5 | Phytotoxicity on rice (rice; 10 g/a): 0; Phytotoxicity on rice (rice; 20 g/a): 0; Phytotoxicity on rice (rice; 40 g/a): 0; LC50 [8]: 18.5 µg/mL (≈ 54.5 µM); Mortality [9]: 83.3%; Mortality (nematode): 100%; Herbicidal effects, barnyard grass ([10]; 10 g/a): 5; Herbicidal effects, barnyard grass ([10]; 20 g/a): 5; Herbicidal effects, barnyard grass ([10]; 40 g/a): 5; Herbicidal effects, broad-leaved weeds ([11]; 10 g/a): 5; Herbicidal effects, broad-leaved weeds ([11]; 20 g/a): 5; Herbicidal effects, broad-leaved weeds ([11]; 40 g/a): 5 |
| CCOP(=O)(SCC(=O)N1CCCCC1C)SC(C)CC (stereo not shown) [Compound 5] |  |  | 5 | 5 | 5 | 5 | 5 | 5 | 0 | 0 | 0 | 5 | 5 | 5 | 5 | 5 | 5 | 5 | 5 | 5 | Phytotoxicity on rice (rice; 10 g/a): 0; Phytotoxicity on rice (rice; 20 g/a): 0; Phytotoxicity on rice (rice; 40 g/a): 0; LC50 [8]: 7.9 µg/mL (≈ 22.3 µM); Mortality [9]: 70.0%; Mortality [12]: 88.9%; Mortality (nematode): 100%; Herbicidal effects, barnyard grass ([10]; 10 g/a): 5; Herbicidal effects, barnyard grass ([10]; 20 g/a): 5; Herbicidal effects, barnyard grass ([10]; 40 g/a): 5; Herbicidal effects, broad-leaved weeds ([11]; 10 g/a): 5; Herbicidal effects, broad-leaved weeds ([11]; 20 g/a): 5; Herbicidal effects, broad-leaved weeds ([11]; 40 g/a): 5 |
